Assay results: US9714401B2, “Particles for malodor reduction” (The Procter & Gamble Company, priority 2015, dated 2017)

Experiment: Blocker Index (BI), expert graders smelling isovaleric acid + test material swatches against isovaleric acid reference scale
Excerpt: Material selection is done by assigning two indices to a test sample material from two reference scales in order to rank odor strengths. The two reference scales are the Fragrance Fidelity Index (FFI) scale and the Blocker Index (BI) scale. The FFI ranks the ability of the test sample material to impart a perceivable odor which could cause interference when combined with another fragrance and the BI ranks the ability of the test sample material to reduce malodor perception. The two methods for assigning the indices to a test sample on the FFI and the BI reference scales are given below.
The first step in the method for assigning a BI to a test sample material on the BI reference scale is to create the BI reference swatches. […] Fabric swatches for this test are white knit polycotton (4 inch×4 inch) swatches from EMC ordered as PC 50/50. The supplier is instructed to strip the swatches first, stripping involves washing twice with a fragrance-free detergent and rinsing three times.
The BI scale contains one clean swatch with no malodor applied. […] These solutions are pipetted to the middle of the swatches. […] After drying for 30 minutes in a vented hood, the swatches are wrapped in aluminum foil to prevent odor contamination to the treated swatch. A clean untreated swatch is also included as the lowest anchor point of reference for malodor strength on the BI scale. […]

`COC(=O)OC1CCC=CCCC1` (centres unmarked) [Material 1139] showed a BI (Conc 10 ppm test material on swatch with 20 μL 0.08% isovaleric acid) of 2.0 and a BI (Conc 50 ppm test material on swatch with 20 μL 0.08% isovaleric acid) of 2.7.
